Marks after values point to notes of the source that are not given here.
Legend:
human adenosine A2BR = biological target: T1, human adenosine A2BR (Homo sapiens, UniProt P29275); assay: Radioligand binding at human adenosine A2B receptor vs. [3H]PSB-603; conditions: for inhibition at 1 µM: CHO cells, read-out: A2BR vs. [³H]PSB-603 % Inhibition ± SEM at 1 µM; for Ki: human recombinant receptor in CHO cells, read-out: A2BR vs. [³H]PSB-603 Ki ± SEM
T1 construct: expressed in transfected cells; host or cells: CHO cells
T1 sequence (P29275 1-332): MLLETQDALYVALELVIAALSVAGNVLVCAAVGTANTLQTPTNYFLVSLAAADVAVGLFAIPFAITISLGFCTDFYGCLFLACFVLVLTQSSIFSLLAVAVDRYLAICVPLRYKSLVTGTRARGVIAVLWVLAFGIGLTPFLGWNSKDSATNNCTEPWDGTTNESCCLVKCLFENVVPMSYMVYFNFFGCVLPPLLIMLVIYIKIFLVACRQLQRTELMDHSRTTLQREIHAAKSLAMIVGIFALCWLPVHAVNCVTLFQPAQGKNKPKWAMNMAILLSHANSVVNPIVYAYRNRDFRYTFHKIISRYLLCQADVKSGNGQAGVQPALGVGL

SH-SY5Y cells = assay: Neurotoxicity, MTS cell viability; assay type: cell-based, human; conditions: 0.098 μM to 100 μM, 24 h
Procedure: Drug safety is a critical step in the process of drug development. […] In our studies, neurotoxicity and hepatotoxicity were evaluated in SH-SY5Y and HepG2 cells, respectively. The compounds were tested at 11 concentrations from 0.098 μM to 100 μM (see Figure 5). Cell viability was assessed after incubation for 24 h with the SH-SY5Y line and for 48 h with the HepG2 line.
To evaluate neurotoxicity and hepatotoxicity, the human neuroblastoma cell line SH-SY5Y (ATCC® no. CRL-2266™) and hepatoma cell line HepG2 (ATCC® no. HB-8065™) were used, respectively. The cells (SH-SY5Y: 5 × 10^3 cells/100μL/well and HepG2: 7 × 10^3 cells/100 μL/well) were seeded in transparent 96-well plates (Nunc) in DMEM supplemented with 10% FBS and cultured overnight. The next day, the medium was changed to medium containing dimethylsulfoxide (DMSO < 0.1%, vehicle control) or an increasing concentration of compounds MZ-1483 (19), MZ-1490 (22) and MZ-1495 (24) ([…]–100 × 10^−6 M). To perform dose-response analysis, two-fold serial dilutions (11 points) were prepared. Treatment with compounds was performed for 48 h. After the incubation time, the cell viability was examined using an MTS-based [3-(4,5-dimethylthiazol-2-yl)-5-(3-carboxymethoxyphenyl)-2-(4-sulfophenyl)-2 H tetrazolium] CellTiter96® AQueous One Solution Cell Proliferation Assay (Promega, Madison, WI, USA) following the manufacturer’s protocol. Briefly, 20 μL of MTS solution was pipetted into each well containing 100 μL of culture or culture medium (negative control) and incubated at 37 °C for 1 h. After incubation time, formazan product turnover absorbance was measured at 490 nm using the microplate reader (Tecan Spark®, Tecan Group Ltd., Maennedorf, Switzerland). A reference wavelength of 630 nm was used.

[1] = Precipitation in culture medium seen under inverted microscope; assay type: physicochemical; conditions: 25 μM, 50 μM, 100 μM
formalin test in mice = assay: Formalin test; assay type: in vivo, albino Swiss mice
Procedure: Injection of formalin into the dorsal surface of the hind paw of a mouse produces a biphasic nocifensive behavioral response; i.e., licking, biting, flinching or lifting of the injected paw. The acute (neurogenic) nociceptive phase lasts for the first 5 min and is followed by a period of little activity for the next 10 min. The first phase of the test is directly associated with nociceptor stimulation and the development of neurogenic inflammation. The second (late) phase occurs between 15 and 30 min after formalin injection. The second phase depends on peripheral inflammation and the central sensitization of pain. Since this phase reflects the activation of inflammatory processes, the compounds active in this phase of the experiment also have an anti-inflammatory effect. The tested compounds 19, 22 and 24, were investigated in three doses: 10, 20 and 40 mg/kg bw. ASA (acetylsalicylic acid) was used as a reference compound and administered in doses of 50, 100 and 200 mg/kg. […] The strongest effect in this assay was produced by 24. […] In addition, this anti-nociceptive and anti-inflammatory effect was approximately 13.8 times greater than that observed for the reference compound (ASA). […] ASA also attenuated statistically significant pain responses in the late phases of the formalin test. […] The in vivo experiments were carried out on male albino Swiss mice weighing 18–26 g and male Wistar rats weighing 150–180 g. The animals were housed in constant temperature facilities exposed to a 12:12 light-dark cycle and maintained on a standard pellet diet and tap water given ad libitum. The control and experimental groups consisted of 6–8 animals each. The investigated compounds were intraperitoneally (ip) administered in the form of a suspension in 0.5% methylcellulose. Control animals received the equivalent volume of solvent. All procedures were conducted according to the guidelines of ICLAS (International Council on Laboratory Animals Science) and were approved by the Local Ethics Committee of the Jagiellonian University in Kraków. The mice were pretreated with the test compound or the vehicle and were allowed to acclimate in Plexiglas observation chambers (20 × 30 × 15 cm) for 30 min before the test. Then, 20 μL of a 5% formalin solution was intraplantarly injected into the right hind paw using a 26-gauge needle. Immediately after formalin injection, the animals were individually placed into glass beakers and were observed during the next 30 min. Time (in seconds) spent on licking or biting the injected paw in selected intervals, 0–5, 15–20, 20–25 and 25–30 min, was measured in each experimental group and was an indicator of nociceptive behavior [41]. The ED50 values and their confidence limits were estimated by the method of Litchfield and Wilcoxon.

## C#CCn1c(=O)c2c(nc(NCc3ccccc3Cl)n2C)n(C)c1=O [compound 19, 8-((2-Chlorobenzyl)amino)-3,7-dimethyl-1-(prop-2-yn-1-yl)-3,7-dihydro-1H-purine-2,6-dione]
Human adenosine A2BR
  inhibition at 1 µM: 14%
  Ki: > 1000 nM
SH-SY5Y cells
  neurotoxicity, cell viability (in words): high safety profile
[1]
  behaviour in the culture medium at the highest concentrations: precipitated and formed crystals in the culture medium
Formalin test in mice; mice, 10 mg/kg ip
  Late Phase Inhibition (%): 26.0%
  Licking of the Hind Paw Early Phase (0–5 min) Mean ± SEM: 41.8 ± 5.5 s
  Licking of the Hind Paw Late Phase (15–30 min) Mean ± SEM: 88.4 ± 5.6 s
Formalin test in mice; mice, 20 mg/kg ip
  Early Phase Inhibition (%): 0%
  Late Phase Inhibition (%): 35.7%
  Licking of the Hind Paw Early Phase (0–5 min) Mean ± SEM: 48.2 ± 10.0 s
  Licking of the Hind Paw Late Phase (15–30 min) Mean ± SEM: 76.8 ± 26.4 s
Formalin test in mice; mice, 40 mg/kg ip
  Early Phase Inhibition (%): 0%
  Late Phase Inhibition (%): 47.2%
  Licking of the Hind Paw Early Phase (0–5 min) Mean ± SEM: 42.6 ± 2.8 s
  Licking of the Hind Paw Late Phase (15–30 min) Mean ± SEM: 63.0 ± 6.6 ^b sec
other
  melting point: 223 to 225 °C

## C#CCn1c(=O)c2c(nc(NCc3c(F)cccc3Cl)n2C)n(C)c1=O [compound 22, 8-((2-Chloro-6-fluorobenzyl)amino)-3,7-dimethyl-1-(prop-2-yn-1-yl)-3,7-dihydro-1H-purine-2,6-dione]
Human adenosine A2BR
  inhibition at 1 µM: 41%
  Ki: > 1000 nM
SH-SY5Y cells
  neurotoxicity, cell viability (in words): high safety profile
[1]
  behaviour in the culture medium at the highest concentrations: precipitated and formed crystals in the culture medium
Formalin test in mice; mice, 10 mg/kg ip
  Early Phase Inhibition (%): 0%
  Late Phase Inhibition (%): 22.8%
  Licking of the Hind Paw Early Phase (0–5 min) Mean ± SEM: 41.6 ± 5.4 s
  Licking of the Hind Paw Late Phase (15–30 min) Mean ± SEM: 92.2 ± 6.5 s
Formalin test in mice; mice, 20 mg/kg ip
  Licking of the Hind Paw Early Phase (0–5 min) Mean ± SEM: 41.0 ± 8.6 s
  Licking of the Hind Paw Late Phase (15–30 min) Mean ± SEM: 78.2 ± 20.3 s
Formalin test in mice; mice, 40 mg/kg ip
  Early Phase Inhibition (%): 5.8%
  Late Phase Inhibition (%): 48.0%
  Licking of the Hind Paw Early Phase (0–5 min) Mean ± SEM: 39.2 ± 1.3 s
  Licking of the Hind Paw Late Phase (15–30 min) Mean ± SEM: 62.0 ± 5.2 ^b sec
other
  melting point: 276 to 278 °C

## C#CCn1c(=O)c2c(nc(NCc3cccc(Br)c3)n2C)n(C)c1=O [compound 24, 8-((3-Bromobenzyl)amino)-3,7-dimethyl-1-(prop-2-yn-1-yl)-3,7-dihydro-1H-purine-2,6-dione]
Human adenosine A2BR
  inhibition at 1 µM: 25%
  Ki: > 1000 nM
SH-SY5Y cells
  neurotoxicity, cell viability (in words): high safety profile
[1]
  behaviour in the culture medium at the highest concentrations: precipitated and formed crystals in the culture medium
Formalin test in mice; Mus musculus, mice, II (late) phase, method of Litchfield and Wilcoxon, read-out: calculated ED50 in the formalin test
  ED50: 9.1 mg/kg
Formalin test in mice; formalin test, from ED50
  effect, times greater than that of the reference compound (ASA): approximately 13.8 times
Formalin test in mice; mice, 10 mg/kg ip
  Early Phase Inhibition (%): 0%
  Late Phase Inhibition (%): 48.7%
  Licking of the Hind Paw Early Phase (0–5 min) Mean ± SEM: 43.2 ± 6.6 s
  Licking of the Hind Paw Late Phase (15–30 min) Mean ± SEM: 61.2 ± 6.4 ^b sec
Formalin test in mice; mice, 20 mg/kg ip
  Early Phase Inhibition (%): 24.5%
  Late Phase Inhibition (%): 82.9%
  Licking of the Hind Paw Early Phase (0–5 min) Mean ± SEM: 31.4 ± 5.0 s
  Licking of the Hind Paw Late Phase (15–30 min) Mean ± SEM: 20.4 ± 10.6 ^d sec
Formalin test in mice; mice, 40 mg/kg ip
  Early Phase Inhibition (%): 26.0%
  Late Phase Inhibition (%): 89.7%
  Licking of the Hind Paw Early Phase (0–5 min) Mean ± SEM: 30.8 ± 6.7 s
  Licking of the Hind Paw Late Phase (15–30 min) Mean ± SEM: 12.2 ± 3.3 ^d sec
other
  melting point: 248 to 250 °C

Reference: paper PMC10531311, “Anti-Inflammatory Activities of 8-Benzylaminoxanthines Showing High Adenosine A2A and Dual A1/A2A Receptor Affinity” (International Journal of Molecular Sciences, 2023)
